In PubChem BioAssay (NCI):
Several values for one entry are separate records, joined by “and”; a condition that tells them apart may be missing. Identical values can stand only once.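 How tested: cells in 96-well plates exposed to compound for 48 hours at five concentrations. GI50 is the concentration that inhibits growth by half. TGI: concentration producing complete growth inhibition.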

Experiments:
Experiment in all cases: inhibition of tumour cell growth, NCI panel, 48 h
786-0 renal = tested on: 786-0 renal
A549 NSCLC = tested on: A549 NSCLC
ACHN renal = tested on: ACHN renal
KM12 colon = tested on: KM12 colon
MALME-3M melanoma = tested on: MALME-3M melanoma
NCI-H226 lung = tested on: NCI-H226 lung
SNB-75 CNS = tested on: SNB-75 CNS
TK-10 renal = tested on: TK-10 renal
UACC-257 melanoma = tested on: UACC-257 melanoma
HT29 colon = tested on: HT29 colon

Cc1nc(Nc2ccc(Cl)cc2)sc1C(=O)NNc1ccc([N+](=O)[O-])cc1[N+](=O)[O-]
TGI (786-0 renal): 29.8 µM
TGI (A549 NSCLC): 34.2 µM
TGI (ACHN renal): 40.9 µM
TGI (KM12 colon): 33.9 µM
TGI (MALME-3M melanoma): 36.2 µM
TGI (NCI-H226 lung): 32.6 µM
TGI (SNB-75 CNS): 32.5 µM
TGI (TK-10 renal): 37.2 µM
TGI (UACC-257 melanoma): 31.3 µM

COc1cccc(-c2cc(=O)c3cc(OC)ccc3[nH]2)c1
GI50 (786-0 renal): 0.15 µM
TGI (786-0 renal): 65.3 µM
GI50 (A549 NSCLC): 0.305 µM
TGI (A549 NSCLC): > 100 µM
GI50 (ACHN renal): 0.661 µM
TGI (ACHN renal): > 100 µM
TGI (HT29 colon): 1.42 µM
GI50 (KM12 colon): 0.0671 µM
TGI (KM12 colon): > 100 µM
GI50 (MALME-3M melanoma): 0.0479 µM
TGI (MALME-3M melanoma): > 100 µM
GI50 (NCI-H226 lung): 0.121 µM
TGI (NCI-H226 lung): 1.57 µM and 7.23 µM
TGI (TK-10 renal): 84.9 µM
GI50 (UACC-257 melanoma): 0.0325 µM
TGI (UACC-257 melanoma): > 100 µM

CN(C)CCCNC(=O)c1cc(NC(=O)c2cc(NC(=O)CCc3c[nH]c4ccccc34)cn2C)cn1C
GI50 (786-0 renal): > 100 µM
TGI (786-0 renal): > 100 µM
GI50 (A549 NSCLC): > 100 µM
TGI (A549 NSCLC): > 100 µM
GI50 (ACHN renal): > 100 µM
TGI (ACHN renal): > 100 µM
GI50 (HT29 colon): > 100 µM
TGI (HT29 colon): > 100 µM
GI50 (KM12 colon): > 100 µM
TGI (KM12 colon): > 100 µM
GI50 (MALME-3M melanoma): > 100 µM
TGI (MALME-3M melanoma): > 100 µM
GI50 (NCI-H226 lung): > 100 µM
TGI (NCI-H226 lung): > 100 µM
GI50 (SNB-75 CNS): > 100 µM
TGI (SNB-75 CNS): > 100 µM
GI50 (TK-10 renal): > 100 µM
TGI (TK-10 renal): > 100 µM
GI50 (UACC-257 melanoma): > 100 µM
TGI (UACC-257 melanoma): > 100 µM

CN(C)CCCOc1ccc(-c2ccc3ncc4c(c3c2)n(C2CCOCC2)c(=O)n4C)cn1
GI50 (786-0 renal): 1.74 µM
TGI (786-0 renal): 12.1 µM
GI50 (A549 NSCLC): 2.36 µM
TGI (A549 NSCLC): 12.3 µM
GI50 (ACHN renal): 2 µM
TGI (ACHN renal): 12.6 µM
GI50 (HT29 colon): 1.95 µM
TGI (HT29 colon): 13.5 µM
GI50 (KM12 colon): 3.16 µM
TGI (KM12 colon): 16.4 µM
GI50 (MALME-3M melanoma): 0.354 µM
TGI (MALME-3M melanoma): 3.41 µM
GI50 (NCI-H226 lung): 1.73 µM
TGI (NCI-H226 lung): 15.2 µM
GI50 (SNB-75 CNS): 0.396 µM
TGI (SNB-75 CNS): 6.45 µM
GI50 (TK-10 renal): 0.286 µM
TGI (TK-10 renal): 2.91 µM
GI50 (UACC-257 melanoma): 1.94 µM
TGI (UACC-257 melanoma): 12.2 µM

COc1ccc(-c2cc(=O)c3ccc(C)nc3[nH]2)cc1
GI50 (786-0 renal): > 100 µM
TGI (786-0 renal): > 100 µM
TGI (A549 NSCLC): > 100 µM
TGI (ACHN renal): > 100 µM
TGI (HT29 colon): > 100 µM
TGI (KM12 colon): > 100 µM
TGI (MALME-3M melanoma): > 100 µM
TGI (NCI-H226 lung): > 100 µM
TGI (TK-10 renal): > 100 µM
TGI (UACC-257 melanoma): > 100 µM

Cc1[nH]c2ccccc2c1C(=O)CC1(O)C(=O)Nc2ccccc21 (configuration not stated)
TGI (786-0 renal): > 100 µM
TGI (A549 NSCLC): > 100 µM
TGI (ACHN renal): > 100 µM
TGI (HT29 colon): > 100 µM
TGI (KM12 colon): > 100 µM
TGI (NCI-H226 lung): > 100 µM
TGI (SNB-75 CNS): > 100 µM
TGI (TK-10 renal): > 100 µM
TGI (UACC-257 melanoma): > 100 µM

COC(=O)c1c2c(c[n+]([O-])c1C)C(=O)C=CC2=O
GI50 (786-0 renal): 2.56 µM
TGI (786-0 renal): 6.39 µM
GI50 (A549 NSCLC): 16.1 µM
TGI (A549 NSCLC): 40.1 µM
GI50 (ACHN renal): 1.73 µM
TGI (ACHN renal): 3.22 µM
GI50 (HT29 colon): 4.1 µM
TGI (HT29 colon): 56.3 µM
GI50 (KM12 colon): 4.27 µM
TGI (KM12 colon): 18.8 µM
GI50 (MALME-3M melanoma): 1.25 µM
TGI (MALME-3M melanoma): 2.51 µM
GI50 (NCI-H226 lung): 2.12 µM
TGI (NCI-H226 lung): 4.52 µM
GI50 (SNB-75 CNS): 1.72 µM
TGI (SNB-75 CNS): 4.13 µM
GI50 (TK-10 renal): 2.99 µM
TGI (TK-10 renal): 9.57 µM
GI50 (UACC-257 melanoma): 2.26 µM
TGI (UACC-257 melanoma): 5.54 µM

c1cc(N(CCn2cccn2)CCn2cccn2)cc(N(CCn2cccn2)CCn2cccn2)c1
TGI (786-0 renal): > 100 µM
TGI (A549 NSCLC): > 100 µM
TGI (ACHN renal): > 100 µM
TGI (KM12 colon): > 100 µM
TGI (SNB-75 CNS): > 100 µM
TGI (TK-10 renal): > 100 µM
TGI (UACC-257 melanoma): > 100 µM

CC(=O)[CH-]C(C)=O.CC(=O)[CH-]C(C)=O.[CH2-]CCC.[CH2-]CCC.[Sn+4]
GI50 (786-0 renal): 0.351 µM
TGI (786-0 renal): 1.56 µM
GI50 (A549 NSCLC): 1.88 µM
TGI (A549 NSCLC): 4.15 µM
GI50 (ACHN renal): 0.487 µM
TGI (ACHN renal): 1.66 µM
GI50 (HT29 colon): 1.28 µM
TGI (HT29 colon): 2.59 µM
GI50 (KM12 colon): 1.11 µM
TGI (KM12 colon): 2.33 µM
GI50 (MALME-3M melanoma): 0.2 µM
TGI (MALME-3M melanoma): 1.07 µM
GI50 (NCI-H226 lung): 1.77 µM
TGI (NCI-H226 lung): 3.45 µM
GI50 (SNB-75 CNS): 0.509 µM
TGI (SNB-75 CNS): 1.79 µM
GI50 (TK-10 renal): 0.423 µM
TGI (TK-10 renal): 1.36 µM
GI50 (UACC-257 melanoma): 0.376 µM
TGI (UACC-257 melanoma): 1.68 µM

CC(C)CC(NC(=O)c1cccc(O)c1O)C(=O)NCc1cc(CNC(=O)C(CC(C)C)NC(=O)c2cccc(O)c2O)cc(CNC(=O)C(CC(C)C)NC(=O)c2cccc(O)c2O)c1 (configuration not stated)
TGI (786-0 renal): > 100 µM
TGI (A549 NSCLC): 50.3 µM
TGI (ACHN renal): > 100 µM
TGI (HT29 colon): 30.9 µM
TGI (KM12 colon): 41.9 µM
TGI (MALME-3M melanoma): 39.5 µM
TGI (NCI-H226 lung): 60.2 µM
TGI (SNB-75 CNS): 45.9 µM
TGI (TK-10 renal): > 100 µM
TGI (UACC-257 melanoma): 58.9 µM

CC(C)=CC(=O)C/C(=N\NC(N)=S)C(=O)Nc1ccc(Cl)cc1
TGI (786-0 renal): > 100 µM
TGI (A549 NSCLC): > 100 µM
TGI (ACHN renal): > 100 µM
TGI (HT29 colon): > 100 µM
TGI (KM12 colon): > 100 µM
TGI (MALME-3M melanoma): > 100 µM
TGI (NCI-H226 lung): > 100 µM
TGI (SNB-75 CNS): > 100 µM
TGI (TK-10 renal): > 100 µM
TGI (UACC-257 melanoma): > 100 µM

COc1cc(/C=C2\C(=O)Nc3cc(C)c(O)cc32)cc(OC)c1OC
GI50 (786-0 renal): 10.4 µM
TGI (786-0 renal): 23.5 µM
GI50 (A549 NSCLC): 6.13 µM
TGI (A549 NSCLC): > 79.6 µM
GI50 (ACHN renal): 8.27 µM
TGI (ACHN renal): 24.6 µM
GI50 (HT29 colon): 4.01 µM
TGI (HT29 colon): > 39.6 µM
GI50 (KM12 colon): 2.62 µM
TGI (KM12 colon): 11.4 µM
GI50 (MALME-3M melanoma): 0.454 µM
TGI (MALME-3M melanoma): 9.11 µM
GI50 (NCI-H226 lung): 15.6 µM
TGI (NCI-H226 lung): 46.5 µM
GI50 (SNB-75 CNS): 3.03 µM
TGI (SNB-75 CNS): > 30 µM
GI50 (TK-10 renal): 12.8 µM
TGI (TK-10 renal): 40.4 µM
GI50 (UACC-257 melanoma): 13.5 µM
TGI (UACC-257 melanoma): 42.7 µM

Cc1nn(-c2nc3ccccc3[nH]2)c(N)c1-c1ccc(Cl)cc1
GI50 (786-0 renal): 8.31 µM
TGI (786-0 renal): > 100 µM
GI50 (A549 NSCLC): 2.9 µM
TGI (A549 NSCLC): > 100 µM
GI50 (ACHN renal): 4.6 µM
TGI (ACHN renal): > 100 µM
GI50 (HT29 colon): 4.35 µM
TGI (HT29 colon): 67.8 µM
GI50 (KM12 colon): 4.39 µM
TGI (KM12 colon): > 100 µM
GI50 (MALME-3M melanoma): 4.69 µM
TGI (MALME-3M melanoma): > 100 µM
GI50 (NCI-H226 lung): 8.66 µM
TGI (NCI-H226 lung): > 100 µM
GI50 (TK-10 renal): 4.51 µM
TGI (TK-10 renal): > 100 µM
GI50 (UACC-257 melanoma): 2.63 µM
TGI (UACC-257 melanoma): 55.8 µM

CN(C)CC(C)(C)/C(=N\Nc1ccccc1)c1ccccc1
TGI (786-0 renal): > 100 µM
TGI (A549 NSCLC): > 100 µM
TGI (ACHN renal): 48.5 µM
TGI (HT29 colon): > 100 µM
TGI (KM12 colon): > 100 µM
TGI (MALME-3M melanoma): > 100 µM
TGI (SNB-75 CNS): > 100 µM
TGI (TK-10 renal): 61.1 µM
TGI (UACC-257 melanoma): > 100 µM

O=C(O)CCCCCCC[C@H]1S[C@H]1CCCCCCO
TGI (786-0 renal): > 100 µM
TGI (HT29 colon): > 100 µM
TGI (KM12 colon): > 100 µM
TGI (MALME-3M melanoma): > 100 µM
TGI (TK-10 renal): > 100 µM

CCCC(=O)NC1=C(Cl)C(=O)c2ccccc2C1=O
TGI (786-0 renal): 8.92 µM
TGI (A549 NSCLC): 16.9 µM
TGI (ACHN renal): 3.83 µM
TGI (HT29 colon): 27.7 µM
TGI (KM12 colon): 15.2 µM
TGI (NCI-H226 lung): 29.9 µM
TGI (SNB-75 CNS): 20.2 µM
TGI (TK-10 renal): 15.6 µM
TGI (UACC-257 melanoma): 14 µM
